Source: publication PMC12398856, “A GLP-1 analogue optimized for cAMP-biased signaling improves weight loss in obese mice” (Molecular Metabolism, 2025)

Legend:
[1] = target: T1, GLP-1R (Homo sapiens, UniProt P43220); assay: CRE-Luciferase reporter assay (cAMP production) in BHK cells expressing GLP-1R; type: cell-based; settings: read-out: Log(data) cAMP EC50 (converted)
Target sequence in this assay (P43220 24-463, species assumed): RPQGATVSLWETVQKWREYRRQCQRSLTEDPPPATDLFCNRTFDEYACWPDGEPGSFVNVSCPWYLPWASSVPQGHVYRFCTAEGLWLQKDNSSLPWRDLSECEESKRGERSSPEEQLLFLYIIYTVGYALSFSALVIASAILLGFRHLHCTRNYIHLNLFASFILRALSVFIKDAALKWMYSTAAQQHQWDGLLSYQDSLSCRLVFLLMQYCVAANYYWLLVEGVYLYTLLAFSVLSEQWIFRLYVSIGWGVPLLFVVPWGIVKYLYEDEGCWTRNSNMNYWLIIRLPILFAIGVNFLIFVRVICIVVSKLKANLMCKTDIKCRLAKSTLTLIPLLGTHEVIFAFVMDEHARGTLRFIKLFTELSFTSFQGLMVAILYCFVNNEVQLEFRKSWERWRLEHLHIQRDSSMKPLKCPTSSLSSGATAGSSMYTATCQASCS

[2] = target: T1, GLP-1R; assay: β-arrestin recruitment (Barr) at GLP-1R, Supplemental Table 1; type: cell-based; settings: negative log10 of EC50; read-out: Log(data) Barr EC50 (converted)
Target sequence in this assay (P43220 24-463, species assumed): as above

[3] = in vivo; settings: mouse, sc, t1/2
[4] = target: T1, GLP-1R; assay: BRET-based cAMP production assay (CAMYEL sensor) in GLP-1R+ HEK293T cells; type: cell-based; set-up: host or cells: HEK293T (ATCC), transient transfection with Lipofectamine 2000
Target sequence in this assay (P43220 24-463): as the sequence (P43220 24-463, species assumed) above

EC50 [1]: 0.0192 nM | EC50 [2]: 20.1 nM | half-life [3]: 21.7 h | EC50 [4]: 73.9 nM
SMILES: CC[C@H](C)[C@H](NC(=O)[C@H](Cc1ccccc1)NC(=O)[C@H](CCC(=O)O)NC(=O)[C@H](CCCNC(=N)N)NC(=O)[C@H](C)NC(=O)[C@H](C)NC(=O)[C@H](CCC(N)=O)NC(=O)[C@H](CCC(=O)O)NC(=O)[C@H](CCC(=O)O)NC(=O)[C@H](CC(C)C)NC(=O)[C@H](Cc1ccc(O)cc1)NC(=O)[C@H](CO)NC(=O)[C@H](CO)NC(=O)[C@@H](NC(=O)[C@H](CC(=O)O)NC(=O)[C@H](CO)NC(=O)[C@@H](NC(=O)[C@H](Cc1ccccc1)NC(=O)[C@@H](NC(=O)CNC(=O)[C@H](CCC(=O)O)NC(=O)[C@H](Cc1c[nH]c2ccccc12)NC(=O)CCc1c[nH]cn1)[C@@H](C)O)[C@@H](C)O)C(C)C)C(=O)N[C@@H](C)C(=O)N[C@@H](Cc1c[nH]c2ccccc12)C(=O)N[C@@H](CC(C)C)C(=O)N[C@H](C(=O)N[C@@H](CCCNC(=N)N)C(=O)NCC(=O)N[C@@H](CCCNC(=N)N)C(=O)N[C@@H](CCCCNC(=O)COCCOCCNC(=O)COCCOCCNC(=O)CC[C@H](NC(=O)CCCCCCCCCCCCCCCCC(=O)O)C(=O)O)C(=O)O)C(C)C [NNC5840]
